{"source": "patent US10294202B2", "about": "“Pyrrolidinones as herbicides” (FMC Corporation, priority 2013, dated 2019)", "key": {"corn": {"tested_on": "corn", "assay": "Test A pre-/postemergence herbicide test", "assay_type": "in vivo, Zea mays", "conditions": "Postemergence", "outline": "(§1)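 Formulated compound (non-phytotoxic solvent, surfactant) sprayed pre- onto soil of seeded loam/sand pots or post- onto seedlings at 1–2 leaves; ~10 d greenhouse; 0–100 visual control rating versus untreated.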"}, "ducksalad": {"tested_on": "ducksalad", "assay": "Test B flooded paddy test", "assay_type": "in vivo, Heteranthera limosa", "conditions": "Flood, scale of 0 to 100 where 0 is no effect and 100 is complete control", "outline": "(§2)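 Treatment was made at the 2-leaf stage by dosing the standing floodwater, kept 3 cm above soil level for the whole test. Greenhouse exposure lasted 13 to 15 days. Response is a visual percent rating relative to controls, where a dash indicates no test result.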"}, "wheat": {"tested_on": "wheat", "assay": "Test A pre-/postemergence herbicide test", "assay_type": "in vivo, Triticum aestivum", "conditions": "Postemergence", "outline": "as §1"}, "pigweed": {"tested_on": "pigweed", "assay": "Test A pre-/postemergence herbicide test", "assay_type": "in vivo, Amaranthus retroflexus", "outline": "as §1"}, "giant foxtail": {"tested_on": "giant foxtail", "assay": "Test A pre-/postemergence herbicide test", "assay_type": "in vivo, Setaria faberii", "outline": "as §1"}, "barnyardgrass [1]": {"tested_on": "barnyardgrass", "assay": "Test B flooded paddy test", "assay_type": "in vivo, Echinochloa crus-galli", "conditions": "Flood, scale of 0 to 100 where 0 is no effect and 100 is complete control", "outline": "as §2"}, "rice": {"tested_on": "rice", "assay": "Test B flooded paddy test", "assay_type": "in vivo, Oryza sativa", "conditions": "Flood, scale of 0 to 100 where 0 is no effect and 100 is complete control", "outline": "as §2"}, "barnyardgrass [2]": {"tested_on": "barnyardgrass", "assay": "Test A pre-/postemergence herbicide test", "assay_type": "in vivo, Echinochloa crus-galli", "outline": "as §1"}, "galium": {"tested_on": "galium", "assay": "Test A postemergence herbicide test", "assay_type": "in vivo, Galium aparine", "outline": "(§3)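 Plants at the one- to two-leaf stage, 2–10 cm tall, grown in loam/sand pots, received postemergence sprays of the test chemicals. After about 10 days in the greenhouse, injury was scored visually against untreated controls on a 0–100 scale (0 none, 100 complete control).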"}, "ragweed": {"tested_on": "ragweed", "assay": "Test A pre-/postemergence herbicide test", "assay_type": "in vivo, Ambrosia elatior", "outline": "as §1"}, "ryegrass, Italian": {"tested_on": "ryegrass, Italian", "assay": "Test A pre-/postemergence herbicide test", "assay_type": "in vivo, Lolium multiflorum", "outline": "as §1"}, "blackgrass": {"tested_on": "blackgrass", "assay": "Test A postemergence herbicide test", "assay_type": "in vivo, Alopecurus myosuroides", "outline": "as §3"}, "kochia": {"tested_on": "kochia", "assay": "Test A pre-/postemergence herbicide test", "assay_type": "in vivo, Kochia scoparia", "outline": "as §1"}, "sedge, umbrella": {"tested_on": "sedge, umbrella", "assay": "Test B flooded paddy test", "assay_type": "in vivo, Cyperus difformis", "conditions": "Flood, scale of 0 to 100 where 0 is no effect and 100 is complete control", "outline": "as §2"}, "[3]": {"conditions": "125 g ai/ha, 0 to 100 scale, 0 is no effect, 100 is complete control"}, "[4]": {"conditions": "125 g ai/ha, visual rating, 0 to 100 scale, 0 no effect, 100 complete control, approximately 10 days, preemergence"}, "[5]": {"conditions": "Postemergence, 125 g ai/ha, 0 to 100 scale, 0 is no effect, 100 is complete control"}, "[6]": {"conditions": "preemergence, 500 g ai/ha, 0 to 100 scale, 0 is no effect and 100 is complete control"}, "[7]": {"conditions": "500 g ai/ha, 0 to 100 scale (0 no effect, 100 complete control)"}, "[8]": {"conditions": "Postemergence, 125 g ai/ha, visual rating on 0 to 100 scale (0 no effect, 100 complete control), approx. 10 days"}, "[9]": {"conditions": "Postemergence, 500 g ai/ha, 0 to 100 scale (0 no effect, 100 complete control)"}, "[10]": {"conditions": "Preemergence, 125 g ai/ha, 0 to 100 scale where 0 is no effect and 100 is complete control"}}, "data": [{"compound": "O=C1NCC(c2cccc(S(F)(F)(F)(F)F)c2)C1C(=O)Nc1ccccc1F", "note": "(racemic) [Compound 213]", "values": [{"measurement": "Plant response rating, Corn", "setting": "corn; [3]", "value": 0}, {"measurement": "Corn plant response rating (0 to 100 scale, 0 is no effect, 100 is complete control)", "setting": "corn; 500 g ai/ha", "value": 50}, {"measurement": "Plant response rating, Ducksalad", "setting": "ducksalad; 1000 g ai/ha", "value": 85}, {"measurement": "Plant response rating, Wheat", "setting": "wheat; [3]", "value": 0}, {"measurement": "Wheat plant response rating (0 to 100 scale, 0 is no effect, 100 is complete control)", "setting": "wheat; 500 g ai/ha", "value": 50}, {"measurement": "Plant response rating, Pigweed", "setting": "pigweed; [4]", "value": 0}, {"measurement": "Plant response rating, Pigweed", "setting": "pigweed; [5]", "value": 0}, {"measurement": "Pigweed plant response rating (0 to 100 scale, 0 is no effect, 100 is complete control)", "setting": "pigweed; Postemergence, 500 g ai/ha", "value": 0}, {"measurement": "Plant response rating, Pigweed", "setting": "pigweed; [6]", "value": 0}, {"measurement": "Plant response rating, Foxtail, Giant", "setting": "giant foxtail; [4]", "value": 80}, {"measurement": "Plant response rating, Foxtail, Giant", "setting": "giant foxtail; [5]", "value": 80}, {"measurement": "Foxtail, Giant plant response rating (0 to 100 scale, 0 is no effect, 100 is complete control)", "setting": "giant foxtail; Postemergence, 500 g ai/ha", "value": 90}, {"measurement": "Plant response rating, Foxtail, Giant", "setting": "giant foxtail; [6]", "value": 90}, {"measurement": "Plant response rating, Barnyardgrass", "setting": "barnyardgrass [1]; 1000 g ai/ha", "value": 60}, {"measurement": "Plant response rating, Rice", "setting": "rice; 1000 g ai/ha", "value": 0}, {"measurement": "Plant response rating, Barnyardgrass", "setting": "barnyardgrass [2]; [4]", "value": 50}, {"measurement": "Plant response rating, Barnyardgrass", "setting": "barnyardgrass [2]; [5]", "value": 60}, {"measurement": "Barnyardgrass plant response rating (0 to 100 scale, 0 is no effect, 100 is complete control)", "setting": "barnyardgrass [2]; Postemergence, 500 g ai/ha", "value": 70}, {"measurement": "Plant response rating, Barnyardgrass", "setting": "barnyardgrass [2]; [6]", "value": 80}, {"measurement": "Plant response rating, Galium", "setting": "galium; [3]", "value": 0}, {"measurement": "Galium plant response rating (0 to 100 scale, 0 is no effect, 100 is complete control)", "setting": "galium; 500 g ai/ha", "value": 0}, {"measurement": "Plant response rating, Ragweed", "setting": "ragweed; [4]", "value": 0}, {"measurement": "Plant response rating, Ragweed", "setting": "ragweed; [5]", "value": 0}, {"measurement": "Ragweed plant response rating (0 to 100 scale, 0 is no effect, 100 is complete control)", "setting": "ragweed; Postemergence, 500 g ai/ha", "value": 30}, {"measurement": "Plant response rating, Ragweed", "setting": "ragweed; [6]", "value": 0}, {"measurement": "Plant response rating, Ryegrass, Italian", "setting": "ryegrass, Italian; [4]", "value": 0}, {"measurement": "Plant response rating, Ryegrass, Italian", "setting": "ryegrass, Italian; [5]", "value": 40}, {"measurement": "Ryegrass, Italian plant response rating (0 to 100 scale, 0 is no effect, 100 is complete control)", "setting": "ryegrass, Italian; Postemergence, 500 g ai/ha", "value": 50}, {"measurement": "Plant response rating, Ryegrass, Italian", "setting": "ryegrass, Italian; [6]", "value": 40}, {"measurement": "Plant response rating, Blackgrass", "setting": "blackgrass; [3]", "value": 50}, {"measurement": "Blackgrass plant response rating (0 to 100 scale, 0 is no effect, 100 is complete control)", "setting": "blackgrass; 500 g ai/ha", "value": 60}, {"measurement": "Plant response rating, Kochia", "setting": "kochia; [4]", "value": 0}, {"measurement": "Plant response rating, Kochia", "setting": "kochia; [5]", "value": 0}, {"measurement": "Kochia plant response rating (0 to 100 scale, 0 is no effect, 100 is complete control)", "setting": "kochia; Postemergence, 500 g ai/ha", "value": 0}, {"measurement": "Plant response rating, Kochia", "setting": "kochia; [6]", "value": 0}, {"measurement": "Plant response rating, Sedge, Umbrella", "setting": "sedge, umbrella; 1000 g ai/ha", "value": 0}]}, {"compound": "O=C1NCC(c2ccc(Cl)c(Cl)c2)C1C(=O)Nc1ccc(F)cc1F", "note": "(racemic) [Compound 272]", "values": [{"measurement": "Plant response rating, Corn", "setting": "corn; [3]", "value": 0}, {"measurement": "Plant response rating, Corn", "setting": "corn; [7]", "value": 10}, {"measurement": "Plant response rating, Ducksalad", "setting": "ducksalad; 500 g ai/ha", "value": 100}, {"measurement": "Plant response rating, Wheat", "setting": "wheat; 125 g ai/ha, visual rating on 0 to 100 scale (0 no effect, 100 complete control), approx. 10 days", "value": 0}, {"measurement": "Plant response rating, Wheat", "setting": "wheat; [7]", "value": 0}, {"measurement": "Plant response rating, Pigweed", "setting": "pigweed; [8]", "value": 0}, {"measurement": "Plant response rating, Pigweed", "setting": "pigweed; [9]", "value": 20}, {"measurement": "Plant response rating, Pigweed", "setting": "pigweed; [10]", "value": 0}, {"measurement": "Plant response rating, Pigweed", "setting": "pigweed; [6]", "value": 30}, {"measurement": "Plant response rating, Foxtail, Giant", "setting": "giant foxtail; [5]", "value": 60}, {"measurement": "Plant response rating, Foxtail, Giant", "setting": "giant foxtail; [9]", "value": 80}, {"measurement": "Plant response rating, Foxtail, Giant", "setting": "giant foxtail; [10]", "value": 90}, {"measurement": "Plant response rating, Foxtail, Giant", "setting": "giant foxtail; [6]", "value": 90}, {"measurement": "Plant response rating, Barnyardgrass", "setting": "barnyardgrass [1]; 500 g ai/ha", "value": 20}, {"measurement": "Plant response rating, Rice", "setting": "rice; 500 g ai/ha", "value": 0}, {"measurement": "Plant response rating, Barnyardgrass", "setting": "barnyardgrass [2]; [5]", "value": 50}, {"measurement": "Plant response rating, Barnyardgrass", "setting": "barnyardgrass [2]; [9]", "value": 80}, {"measurement": "Plant response rating, Barnyardgrass", "setting": "barnyardgrass [2]; [10]", "value": 70}, {"measurement": "Plant response rating, Barnyardgrass", "setting": "barnyardgrass [2]; [6]", "value": 90}, {"measurement": "Plant response rating, Galium", "setting": "galium; [3]", "value": 30}, {"measurement": "Plant response rating, Galium", "setting": "galium; [7]", "value": 50}, {"measurement": "Plant response rating, Ragweed", "setting": "ragweed; [8]", "value": 40}, {"measurement": "Plant response rating, Ragweed", "setting": "ragweed; [9]", "value": 0}, {"measurement": "Plant response rating, Ragweed", "setting": "ragweed; [10]", "value": 0}, {"measurement": "Plant response rating, Ragweed", "setting": "ragweed; [6]", "value": 0}, {"measurement": "Plant response rating, Ryegrass, Italian", "setting": "ryegrass, Italian; [8]", "value": 0}, {"measurement": "Plant response rating, Ryegrass, Italian", "setting": "ryegrass, Italian; [9]", "value": 0}, {"measurement": "Plant response rating, Ryegrass, Italian", "setting": "ryegrass, Italian; [10]", "value": 0}, {"measurement": "Plant response rating, Ryegrass, Italian", "setting": "ryegrass, Italian; [6]", "value": 0}, {"measurement": "Plant response rating, Blackgrass", "setting": "blackgrass; [3]", "value": 0}, {"measurement": "Plant response rating, Blackgrass", "setting": "blackgrass; [7]", "value": 30}, {"measurement": "Plant response rating, Kochia", "setting": "kochia; [5]", "value": 20}, {"measurement": "Plant response rating, Kochia", "setting": "kochia; [9]", "value": 60}, {"measurement": "Plant response rating, Kochia", "setting": "kochia; [10]", "value": 0}, {"measurement": "Plant response rating, Kochia", "setting": "kochia; [6]", "value": 20}, {"measurement": "Plant response rating, Sedge, Umbrella", "setting": "sedge, umbrella; 500 g ai/ha", "value": 0}]}]}
